Where “and” joins values, the source holds several entries; their conditions need not be identical. Identical values can stand only once.
CC1(C)S[C@@H]2[C@H](N)C(=O)N2[C@H]1C(=O)O
in water
Conditions | solubility (mole fraction)
274.15 K | 0.000132
278.15 K | 0.000143
283.15 K | 0.000159
289.15 K | 0.000173
293.15 K | 0.000183
298.15 K | 0.000203
303.15 K | 0.000226

F[P-](F)(F)(F)(F)F.F[P-](F)(F)(F)(F)F.c1cc[n+](CCCCCC[n+]2ccccc2)cc1
solubility (mole fraction)
Conditions | 288.15 K | 288.25 K | 293.15 K | 294.85 K | 298.15 K | 299.15 K | 303.15 K | 303.55 K | 308.25 K
in acetone | 0.00399 | – | 0.00402 | – | 0.00409 | – | 0.00431 | – | –
in water | – | 2.7e-05 | – | 4.2e-05 | – | 5.4e-05 | – | 7e-05 | 9e-05

CCc1ccc(CCOc2ccc(CC3SC(=O)NC3=O)cc2)nc1.Cl (configuration not stated)
in methanol
Conditions | solubility (mole fraction)
283.15 K | 0.00517
293.15 K | 0.00754
303.15 K | 0.0102
313.15 K | 0.0149
323.15 K | 0.0223

O=C1NC(=O)C(c2ccccc2)(c2ccccc2)N1
solubility (mole fraction)
Conditions | 293.15 K | 298.2 K | 303.2 K | 308.2 K | 313.15 K | 313.2 K
in NMP | 0.119 | – | – | – | 0.116 | –
in transcutol | – | 0.00133 | 0.00144 | 0.00151 | – | 0.00166
in water | 9.7e-07 | 1.51e-06 | 1.72e-06 | 1.88e-06 | 1.91e-06 | 2.08e-06

CC(=O)N1CCN(c2ccc(OC[C@@H]3CO[C@@](Cn4ccnc4)(c4ccc(Cl)cc4Cl)O3)cc2)CC1 (racemic)
solubility (mole fraction)
Conditions | in 1,4-dioxane | in NMP | in ethanol | in isopropanol | in propylene glycol | in transcutol
293.2 K | 0.00683 | 0.019 | 0.00275 | 0.000773 | 0.00161 | 0.0116
298.2 K | 0.00833 | 0.023 | 0.00358 | 0.000948 | 0.00219 | 0.0136
303.2 K | 0.00983 | 0.0282 | 0.00434 | 0.00121 | 0.00293 | 0.0159
308.2 K | 0.0121 | 0.0321 | 0.00561 | 0.0018 | 0.00348 | 0.0189
313.2 K | 0.0139 | 0.0376 | 0.00649 | 0.00237 | 0.00507 | 0.0212

O=C(O)CNCP(=O)(O)O
in water
Conditions | solubility (mole fraction)
293.67 K | 0.00112
302.65 K | 0.0014
311.95 K | 0.00174
317.15 K | 0.00202
322.15 K | 0.00226
327 K | 0.0025
332.35 K | 0.00285

O=C(O)c1ccccc1O
298.15 K
Conditions | solubility (mole fraction)
in 1,4-dioxane | 0.261
in ethanol | 0.145
in ethyl acetate | 0.138
in methanol | 0.122
in water | 0.0003

Conditions | solubility (mole fraction)
in PEG-300, 298.15 K | 0.493

C=C1CC[C@H](O)C/C1=C/C=C1\CCC[C@]2(C)[C@@H]([C@H](C)CCCC(C)C)CC[C@@H]12
in water
Conditions | solubility (mole fraction)
273.2 K | 1.97e-07
278.2 K | 2.95e-07
283.2 K | 4.38e-07
288.2 K | 5.71e-07
298.2 K | 1.06e-06

Cc1cnc(NC(=O)C2=C(O)c3ccccc3S(=O)(=O)N2C)s1
solubility (mole fraction)
Conditions | 293.15 K | 298.15 K | 303.15 K | 308.15 K | 313.15 K
in methanol | 4.02e-05 | 4.87e-05 and 3.93e-05 | 5.88e-05 | 7.04e-05 | 8.46e-05
in water | – | 4.23e-06 | – | – | –

CCCCCC
in water
Conditions | solubility (mole fraction)
280.8 K | 3.1e-06
295.5 K | 2.7e-06

C[C@@H](O)[C@H]1C(=O)N2C(C(=O)O)=C(S[C@@H]3CN[C@H](C(=O)N(C)C)C3)[C@H](C)[C@H]12.O.O.O
in water
Conditions | solubility (mole fraction)
278.15 K | 0.000408
283.15 K | 0.000445
288.15 K | 0.00051
293.15 K | 0.000556
298.15 K | 0.00066
303.15 K | 0.000782

Oc1cc(O)c2cc1Cc1cc(c(O)cc1O)Cc1cc(c(O)cc1O)Cc1cc(c(O)cc1O)C2
in water
Conditions | solubility (mole fraction)
278.15 K | 3.22e-06
283.15 K | 4.29e-06
288.15 K | 4.86e-06
293.15 K | 6.26e-06
298.15 K | 6.59e-06
303.15 K | 7.16e-06
308.15 K | 7.68e-06

c1ccc(-c2cnc(-c3ccccc3)o2)cc1
298.15 K
Conditions | solubility (mole fraction)
in acetone | 0.29
in ethanol | 0.04
in water | 1.41e-07

Cc1nc2n(c(=O)c1CCN1CCC(c3noc4cc(F)ccc34)CC1)CCCC2
in water
Conditions | solubility (mole fraction)
298.15 K | 1e-07
303.15 K | 1e-07
308.15 K | 2e-07
313.15 K | 2e-07
318.15 K | 3e-07
323.15 K | 4e-07
328.15 K | 5e-07
333.15 K | 6e-07

O=[N+]([O-])c1ccc(N/N=C/c2cccs2)cc1
Conditions | solubility (mole fraction)
in water, 298.15 K | 1.68e-07

O=C1c2ccccc2C(=O)N1O
in acetic acid
Conditions | solubility (mole fraction)
293.2 K | 0.00298
303.2 K | 0.00394
313.2 K | 0.00504
323.2 K | 0.00658
333.2 K | 0.00816
343.2 K | 0.0103
353.2 K | 0.0127
363.2 K | 0.0155

O=C(O)c1ccc(-n2nc(-c3ccccc3O)nc2-c2ccccc2O)cc1
298.2 K
Conditions | solubility (mole fraction)
in acetonitrile | 0.00106
in ethanol | 0.0143
in methanol | 0.0119
in propylene glycol | 0.0195

COc1ccc([C@@H]2CC(=O)c3c(O)cc(O[C@@H]4O[C@H](CO[C@@H]5O[C@@H](C)[C@H](O)[C@@H](O)[C@H]5O)[C@@H](O)[C@H](O)[C@H]4O)cc3O2)cc1O
in n-propanol
Conditions | solubility (mole fraction)
293.15 K | 0.000142
298.15 K | 0.000166
303.15 K | 0.00019
308.15 K | 0.000218
313.15 K | 0.000252
318.15 K | 0.000289
323.15 K | 0.000329
328.15 K | 0.000375
333.15 K | 0.000425

c1ccc(-c2cnc(-c3ccc(-c4ncc(-c5ccccc5)o4)cc3)o2)cc1
298.15 K
Conditions | solubility (mole fraction)
in acetone | 0.00013
in ethanol | 8.43e-06
in water | 7.3e-10

C(=N\Nc1ccccc1)/c1ccc[nH]1
Conditions | solubility (mole fraction)
in water, 298.15 K | 5.86e-07

O=C1Nc2ccccc2C1=O
Conditions | solubility (mole fraction)
in PEG-400, 298.15 K | 0.0985
in PEG-400, 308.15 K | 0.109
in PEG-400, 318.15 K | 0.121
in PEG-400, 328.15 K | 0.132
in PEG-400, 338.15 K | 0.145

in transcutol
Conditions | solubility (mole fraction)
298.15 K | 0.52
308.15 K | 0.536
318.15 K | 0.557
328.15 K | 0.579
338.15 K | 0.594

O=C1Nc2ccc(Cl)cc2C(c2ccccc2Cl)=NC1O (configuration not stated)
Conditions | solubility (mole fraction)
in PEG-200, 303.2 K | 0.0958

Conditions | solubility (mole fraction)
in water, 303.2 K | 3e-06

C(=N\Nc1ccccc1)/c1cccs1
Conditions | solubility (mole fraction)
in water, 298.15 K | 5.19e-07

CCC(C)C
Conditions | solubility (mole fraction)
in water, 293.2 K | 1.24e-05

CC(=O)OCC(=O)[C@@]12N=C(C)O[C@@H]1C[C@H]1[C@@H]3CCC4=CC(=O)C=C[C@]4(C)[C@H]3[C@@H](O)C[C@@]12C
303.15 K
Conditions | solubility (mole fraction)
in acetone | 0.00721
in ethanol | 0.0024
in ethyl acetate | 0.00399
in isopropanol | 0.00204
